Measurements: patent publication US20250152706A1, “COMPOSITIONS FOR ORAL DELIVERY OF BIOTHERAPEUTICS” (INTRACT PHARMA LIMITED, priority 2022, published 2025)
“Also recorded” adds a separate entry of the source. Where two headings read alike, the source gives them in different places. Each block holds one compound with its values, some of them ahead of it.

Key:
[1] = Method: Antibody stock solution (infliximab) was prepared in PBS at a 2 mg/ml concentration. 5-ALA was prepared at concentrations 10, 20 or 40 mg/ml. Methyl-ALA, hexyl-ALA, salcaprozate sodium, (SNAC) and sodium chenodeoxycholate were prepared at 20 mg/ml concentrations. The base L-arginine was prepared at 11, 22 or 44 mg/ml, and the stabiliser aprotinin was prepared at a 2 mg/ml concentration.
A 300×8.0-mm YMC-Pack Diol-200 S-5 μm, 20 nm (YMC Co Ltd, Kyoto, Japan) size exclusion (SE) chromatography column was used for sample separation using phosphate buffer saline (pH 7.3) prepared in sterile HPLC grade water as the mobile phase for elution, at a flow rate of 0.5 ml/min. The analysis was operated at room temperature and UV detection wavelength was set at 214 nm. Each sample was run for 40 minutes to allow complete elution of the sample proteins and reduce run-over.
Stability of the drug infliximab in rat caecum slurry was measured with and without SNAC, sodium chenodeoxycholate, hexyl-ALA and aprotinin. Each experiment was conducted in duplicate/triplicate. The antibody remaining at different time points was measured by SE-HPLC.

[2] = Ussing chamber penetration of oxytocin into rat colon tissue, RP-HPLC; assay type: in vitro ADME; details: Example 12
Method: (§1) The chambers are made of solid acrylic and supports the tissue membrane in such a way that each side of the membrane is isolated and faces a different chamber representing the luminal (apical) and blood (basal) compartments. The working system consists of a unit to fit a maximum of six vertical chambers, a gas manifold for carbogen purging (95% O2, 5% CO2) and a heater block to maintain the temperature of the chambers at 37° C. during the experiments with the use of a circulating water bath. The chambers are two-piece assemblies held together by a high spring-tension retaining ring to ensure leak-free operation during the experiments. […]
(§2) For the tissue penetration studies, the freshly excised small intestine (jejunum) and proximal colon tissue of healthy wistar rats was collected and transferred to an ice-cold solution of Krebs-Bicarbonate Ringer solution (KBr) of pH 7.4. […] The TEER was continuously monitored during the experiment to confirm the viability and integrity of the tissue. […]
(§3) Permeability of the drug oxytocin across rat small intestine (jejunum) and colon tissue was measured with and without 5-ALA. The peptide in the tissue at 2 h and was measured by RP-HPLC.

[3] = Stability of oxytocin in rat caecum slurry, RP-HPLC; details: for remaining at 2 h, 1 mg/ml: Wistar, rat, pH 5.5, % Drug at T = 2 h, oxytocin 1 mg/ml, aprotinin 1 mg/ml in rat caecum slurry; for effect of the excipient on oxytocin stability, in words: rat caecum slurry, Examples 6 and 7
Method: The rat caecum slurry was based on combination of cecum and proximal colon fluids collected from healthy wistar rats weighing 250 g. The fluids were collected immediately after sacrificing the rats and transferred to an anaerobic workstation (Electrotek 500TG™ workstation, Electrotek, West Yorkshire, UK) maintained at 37° C. and 70% relative air humidity. The fluids were diluted with freshly prepared basal medium to obtain a 50% w/w caecum fluid by homogenization. The homogenized mixture was sieved through an open mesh fabric. The pH of the fluid was measured as 5.5.
Peptide stock solution (oxytocin) were prepared in PBS at 2 mg/ml concentrations. Concentrations of 10 mg/ml and 40 mg/ml 5-ALA, 40 mg/ml methyl-ALA, 40 mg/ml hexyl-ALA and 2 mg/ml aprotinin were prepared. Stock solutions containing certain oxytocin combinations were added to 50% rat caecum slurry to obtain incubation concentrations (Examples 6 and 7) of 1 mg/ml peptide, 5 mg/ml or 20 mg/ml 5-ALA, 20 mg/ml methyl-ALA, 20 mg/ml hexyl-ALA, 1 mg/ml aprotinin, and 25% w/w rat caecum slurry. Samples were withdrawn at appropriate time points and added to 0.1N HCl solution in a ratio of 1:3. The samples were centrifuged at 9.6 g for 10 mins and the supernatant was analysed by reversed phase-HPLC (RP-HPLC).
A 150×4.6-mm Luna 5 μm C18 100 Å (Phenomenex, Torrance, CA) column was used using a gradient system as below:
Each sample's injection volume was 20 μl, the mobile phase flow rate was 1 ml/min and the peptide was detected at 214 nm. Each sample was run for 23 mins.
Stability of the drug oxytocin in rat caecum slurry was measured with and without 5-ALA and aprotinin, an enzyme inhibitor. Each experiment was conducted in duplicate/triplicate. The oxytocin remaining at different time points was measured by RP-HPLC.
Stability of the drug oxytocin in rat caecum slurry was measured with and without methyl-ALA, hexyl-ALA and aprotinin, an enzyme inhibitor. Each experiment was conducted in duplicate/triplicate. The oxytocin remaining at different time points was measured by RP-HPLC.

[4] = Stability of infliximab in human colon fluid (human colon model), SE-HPLC; assay type: in vitro ADME; details: for effect of the excipient on infliximab stability, in words: human colon fluid, Examples 1 and 4
Method: A human colonic model based on a mixed faecal inoculum was used to mimic the luminal environment of the human large intestine. […] The basal media provides nutrients and growth factors to the microbiota allowing viability for up to 24 hours. The homogenized bacterial media was sieved through an open mesh fabric (SefarNitex™, pore size 350 μm) to remove any nonhomogeneous fibrous material. The pH was maintained at approximately 7.0 to mimic the colonic luminal pH of the human.
Stability of the drug/antibody infliximab in human colon fluid was measured with and without 5-ALA at varying concentrations. Each experiment was conducted in duplicate/triplicate.
Stability of the drug infliximab in human colon fluid was measured with and without 5-ALA and L-arginine at varying concentrations. Each experiment was conducted in duplicate/triplicate.
Stability of the drug infliximab in human colon fluid was measured with and without 5-ALA and aprotinin at varying pH. Each experiment was conducted in duplicate/triplicate.
Each experiment was conducted in duplicate/triplicate.

[5] = Ussing chamber penetration of infliximab into rat colon tissue, ELISA; details: 2 h
Method: as §1, §2
(§4) Infliximab sample analysis (permeability studies) was performed using an indirect ELISA platform assay. […] The plate was read at a wavelength of 650 nm with the plate reader (Synergy LX Multimode Reader, Biotek).
(§5) Permeability of the drug infliximab across rat small intestine (jejunum) and colon tissue was measured with and without 5-ALA and the base, L-arginine. […]

[6] = Ussing chamber penetration of oxytocin into rat small intestine tissue, RP-HPLC; details: 2 h, Examples 12-14
Method: as §1, §2, §3
Permeability of oxytocin across rat small intestine (jejunum) was measured with and without 5-ALA, methyl-ALA and hexyl-ALA. The peptide in the tissue at 2 h and was measured by RP-HPLC. […]

[7] = Ussing chamber penetration of infliximab into rat small intestine tissue, ELISA; details: 2 h, Examples 8-10
Method: as §1, §2, §4, §5

[8] = Example 1, infliximab 1 mg/ml in human colon fluid, 5-ALA.HCl 5 mg/ml (pH 5.5), 10 mg/ml (pH 4.9), 20 mg/ml (pH 4.1)
[9] = Example 2, infliximab 1 mg/ml in human colon fluid, 5-ALA phosphate + L-arginine 5 + 5.5 mg/ml (pH 6.4), 10 + 11 mg/ml (6.5), 20 + 22 mg/ml (pH 6.5), 5-ALA phosphate 20 mg/ml + NaOH (pH 6.4)
[10] = Example 4, infliximab 1 mg/ml, 5-ALA.HCl / methyl-ALA / hexyl-ALA 10 mg/ml, aprotinin 1 mg/ml in human colon fluid, pH 6.5

Compound: aprotinin
effect of the excipient on infliximab stability, in words [1]: provides an antibody stabilisation effect

% Drug in colon tissue at 2 h ([2]; oxytocin 1 mg/ml, 5-ALA.HCl 20 mg/ml): 0.0 ± 0.0%
remaining at 2 h, 1 mg/ml ([3]; Example 6, 5-ALA.HCl 20 mg/ml): 10.9 ± 3.4%
remaining at 2 h, 1 mg/ml ([3]; Example 7, methyl-ALA / hexyl-ALA 20 mg/ml): 5 ± 2%
Compound: CC[C@H](C)[C@@H]1NC(=O)[C@H](Cc2ccc(O)cc2)NC(=O)[C@@H](N)CSSC[C@@H](C(=O)N2CCC[C@H]2C(=O)N[C@@H](CC(C)C)C(=O)NCC(N)=O)NC(=O)[C@H](CC(N)=O)NC(=O)[C@H](CCC(N)=O)NC1=O [Oxytocin]

Compound: CCCCCCOC(=O)CCC(=O)CN [hexyl-ALA, hexyl aminolevulinic acid]
effect of the excipient on infliximab stability, in words [4]: greater antibody stabilisation
effect of the excipient on infliximab stability, in words [1]: provide good antibody stability
effect of the excipient on oxytocin stability, in words [3]: provide some peptide stabilisation

effect of the excipient on infliximab stability, in words [1]: provide no stabilisation
Compound: O=C([O-])CCCCCCCNC(=O)c1ccccc1O.[Na+] [SNAC, salcaprozate sodium]

Compound: CCCCCCCCCC(=O)[O-].[Na+] [sodium caprate]
effect of the excipient on infliximab tissue level, in words ([5]; rat colon tissue pre-treated with NAC, Example 11): may have led to increased tissue levels of antibody
effect of the excipient on oxytocin permeation / tissue level, in words [6]: greatest increase in oxytocin tissue levels

Compound: NCC(=O)CCC(=O)O [Formulation 5-ALA, 5-aminolevulinic acid]
effect of the excipient on oxytocin permeation / tissue level, in words ([2]; rat colon tissue, 2 h): acts as a permeability enhancer and increases the amount of oxytocin
effect of the excipient on infliximab permeation / tissue uptake, in words [7]: did not lead to permeation or improved tissue uptake of infliximab
effect of the excipient on infliximab stability, in words [4]: provides antibody stability; also recorded: does not stabilize the antibody in a dose dependent manner
effect of the excipient on oxytocin stability, in words [3]: acts as a stabiliser and increases the amount of peptide present in the caecum slurry
effect of the excipient on infliximab permeation / tissue uptake, in words ([5]; rat colon tissue, Example 8): did not lead to permeation or improved tissue uptake of infliximab

Compound: COC(=O)CCC(=O)CN [methyl-ALA, methyl aminolevulinic acid]
effect of the excipient on infliximab stability, in words [4]: greater antibody stabilisation

Compound: Infliximab: monoclonal antibody; existing commercial IBD therapeutic antibody, tested alone as control
% Drug at T = 2 h [4, 8]: 21.5 ± 0.0%
% Drug at T = 4 h [4, 8]: 7.8 ± 0.0%
% Drug at T = 2 h [4, 9]: 16.5 ± 0.4%
% Drug at T = 4 h [4, 9]: 6.5 ± 0.3%
% Drug at T = 2 h [4, 10]: 37.6 ± 3.5%
% Drug at T = 4 h [4, 10]: 16.1 ± 0.6%

effect of the excipient on infliximab stability, in words [1]: provide no stabilisation
Compound: C[C@H](CCC(=O)[O-])[C@H]1CC[C@H]2[C@@H]3[C@H](O)C[C@@H]4C[C@H](O)CC[C@]4(C)[C@H]3CC[C@]12C.[Na+] [sodium chenodeoxycholate]
